According to US12673936B2, “Isoindolinone compounds, and uses thereof” (HANGZHOU GLUBIO PHARMACEUTICAL CO., LTD., priority 2021, dated 2026):

Legend:
Type in all cases: cell-based
HiBiT tagged CK1α = HiBiT tagged CK1α (Homo sapiens, UniProt P48729+Q96SW2); assay: CK1α degradation assay (HiBiT assay); conditions: 20 hours; for Dmax: HT-1080, HT-1080 cells; for DC50: concentration at 50% CK1α degradation
Outline: (§1)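 HT-1080 cells stably expressing wild-type CRBN, GSPT1A(1-138)/G575N and HiBiT-tagged CK1α or GSPT1, ~10,000/well, treated with compound from 3.162×10^-4 μM to 10 μM (3.16-fold steps). HiBiT luminescence normalized to DMSO as percent of control.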

HiBiT tagged GSPT1 = HiBiT tagged GSPT1 (Homo sapiens, UniProt P15170+Q96SW2); assay: GSPT1 degradation assay (HiBiT assay); conditions: for Dmax: HT-1080, HT-1080 cells
Sequence of HiBiT tagged GSPT1 (P15170 whole entry): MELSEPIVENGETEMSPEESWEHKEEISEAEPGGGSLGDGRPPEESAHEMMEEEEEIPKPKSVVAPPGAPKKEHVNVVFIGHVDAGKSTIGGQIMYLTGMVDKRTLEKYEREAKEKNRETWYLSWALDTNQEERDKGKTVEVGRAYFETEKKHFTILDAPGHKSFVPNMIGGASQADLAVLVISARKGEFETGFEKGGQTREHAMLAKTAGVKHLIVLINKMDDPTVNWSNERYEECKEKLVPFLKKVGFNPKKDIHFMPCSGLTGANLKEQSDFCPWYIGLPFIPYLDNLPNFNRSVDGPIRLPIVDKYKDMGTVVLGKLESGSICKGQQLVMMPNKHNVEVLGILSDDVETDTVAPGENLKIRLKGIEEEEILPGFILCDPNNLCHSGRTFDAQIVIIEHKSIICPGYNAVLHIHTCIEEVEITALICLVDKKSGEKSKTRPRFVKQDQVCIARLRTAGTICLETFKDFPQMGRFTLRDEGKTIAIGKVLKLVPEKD
Sequence of HiBiT tagged GSPT1 (Q96SW2 whole entry): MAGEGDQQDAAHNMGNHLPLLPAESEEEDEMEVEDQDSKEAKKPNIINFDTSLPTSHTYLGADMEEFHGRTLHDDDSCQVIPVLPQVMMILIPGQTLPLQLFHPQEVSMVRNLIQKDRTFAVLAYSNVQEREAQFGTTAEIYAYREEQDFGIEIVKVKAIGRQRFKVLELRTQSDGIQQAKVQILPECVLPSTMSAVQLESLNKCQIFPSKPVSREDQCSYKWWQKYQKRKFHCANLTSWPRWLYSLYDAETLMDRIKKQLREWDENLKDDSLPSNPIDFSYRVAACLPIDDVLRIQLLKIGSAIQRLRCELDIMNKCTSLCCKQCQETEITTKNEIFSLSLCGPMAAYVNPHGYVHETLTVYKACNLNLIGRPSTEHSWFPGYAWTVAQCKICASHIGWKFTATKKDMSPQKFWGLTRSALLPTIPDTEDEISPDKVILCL
Sequence of HiBiT tagged GSPT1 (Q16531 whole entry partner): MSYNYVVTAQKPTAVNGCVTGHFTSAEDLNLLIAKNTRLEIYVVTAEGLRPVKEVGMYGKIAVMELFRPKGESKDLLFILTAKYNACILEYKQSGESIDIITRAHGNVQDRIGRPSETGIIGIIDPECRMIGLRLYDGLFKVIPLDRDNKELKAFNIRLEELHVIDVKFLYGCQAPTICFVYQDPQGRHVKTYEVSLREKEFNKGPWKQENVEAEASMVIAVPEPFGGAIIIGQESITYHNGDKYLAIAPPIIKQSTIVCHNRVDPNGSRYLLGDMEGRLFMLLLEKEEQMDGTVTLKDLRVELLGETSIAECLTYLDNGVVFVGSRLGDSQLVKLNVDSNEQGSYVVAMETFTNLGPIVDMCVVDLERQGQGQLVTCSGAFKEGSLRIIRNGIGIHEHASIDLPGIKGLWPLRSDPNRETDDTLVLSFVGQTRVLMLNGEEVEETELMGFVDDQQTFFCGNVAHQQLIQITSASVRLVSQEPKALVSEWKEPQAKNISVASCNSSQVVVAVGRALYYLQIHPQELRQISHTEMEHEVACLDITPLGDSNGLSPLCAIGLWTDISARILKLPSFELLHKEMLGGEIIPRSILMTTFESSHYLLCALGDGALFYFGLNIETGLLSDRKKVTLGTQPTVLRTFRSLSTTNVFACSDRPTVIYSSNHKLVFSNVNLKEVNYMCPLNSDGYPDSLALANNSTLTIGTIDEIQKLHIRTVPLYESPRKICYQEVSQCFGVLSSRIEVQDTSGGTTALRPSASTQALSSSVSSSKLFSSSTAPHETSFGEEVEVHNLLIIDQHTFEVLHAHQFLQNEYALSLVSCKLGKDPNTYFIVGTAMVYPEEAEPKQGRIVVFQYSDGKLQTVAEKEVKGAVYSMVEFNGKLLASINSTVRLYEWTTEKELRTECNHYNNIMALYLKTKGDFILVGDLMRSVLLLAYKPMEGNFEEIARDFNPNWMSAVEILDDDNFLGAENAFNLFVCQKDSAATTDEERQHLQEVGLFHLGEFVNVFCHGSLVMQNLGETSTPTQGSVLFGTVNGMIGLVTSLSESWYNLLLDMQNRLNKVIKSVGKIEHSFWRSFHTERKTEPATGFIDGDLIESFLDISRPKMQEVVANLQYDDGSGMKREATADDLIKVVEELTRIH
Outline: as §1

MV4-11 cells = assay: MV4-11 cell proliferation assay (CTG cell viability); conditions: Homo sapiens, 120 hours, read-out: CTG cell viability assay_MV4-11: IC50
Method: MV4-11 Cell Proliferation Assay
The following is an example of an assay that can be used to determine the dose-dependent, anti-proliferative activity of CK1α degradating compounds in an AML cell line such as MV4-11 (ATCC Cat #CRL-9591).
MV4-11 cells were seeded into a 384-well plate (Cat #3764, Corning) pre-spotted with DMSO or test compounds. Increasing concentrations of test compounds (ranging from 1×10^−3 μM to 10 μM at a 3.162-fold increment in a 10-point dose response assay; ranging from 3.162×10^−4 μM to 10 μM at a 3.162-fold increment in a 11-point dose response assay) or DMSO were dispensed into an empty 384-well plate using an a D300e digital dispenser (Tecan) or an Echo Acoustic Liquid Handler (Beckman Coulter). About 2,000 cells in 50 μL of culture media (IMDM plus 10% heat-inactivated FBS) were seeded per well. Assay plates were incubated at 37° C. with 5% CO2 for 120 hours. After that, 20 μL of the CellTiter-Glo Luminescent Cell Viability Assay Reagent (Cat #G7573, Promega) was added to each well and incubated at room temperature for 30 minutes. Luminescence was then measured with an EnVision plate reader (PerkinElmer) or a PHERAstar plate reader (BMG LABTECH). All cell growth inhibition curves were processed using Collaborative Drug Discovery Vault softwares (Burlingame, CA, www.collaborativedrug.com).
Cell viability reads in compound-treated wells were normalized to that of DMSO control and expressed as Percent of Control (PoC, y). A four Parameter Logistic Model was used to determine the compound's EC50 and DC50, using the following equation:
[formula] • A==lowest cell viability read normalized to DMSO control in response to compound treatment, as determined by curve fit • B=cell viability read in DMSO control • C=EC50 • D=Hill Slope • x=compound concentration • EC50=the concentration of compound when y=(B−A)/2 • IC50=the concentration of the compound when y=50% of DMSO control • y=cell viability read normalized to DMSO control Ymin=(A/B)*100% • Ymin represents the lowest cell viability % that can be achieved by the compound treatment in the assay.

[1] = 20 hours, maximum GSPT1 degradation

Sequence of HiBiT tagged CK1α (P48729 whole entry): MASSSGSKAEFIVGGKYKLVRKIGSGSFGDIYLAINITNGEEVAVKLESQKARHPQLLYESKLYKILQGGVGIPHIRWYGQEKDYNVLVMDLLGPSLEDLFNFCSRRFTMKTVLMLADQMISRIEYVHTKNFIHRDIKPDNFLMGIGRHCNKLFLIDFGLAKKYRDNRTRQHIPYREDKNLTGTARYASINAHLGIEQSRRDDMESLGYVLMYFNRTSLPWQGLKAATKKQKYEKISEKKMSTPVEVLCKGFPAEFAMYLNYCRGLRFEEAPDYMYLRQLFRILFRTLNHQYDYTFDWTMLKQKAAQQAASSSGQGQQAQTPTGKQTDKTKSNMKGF
Sequence of HiBiT tagged CK1α (Q96SW2 whole entry): as the sequence (Q96SW2 whole entry) above
Sequence of HiBiT tagged CK1α (Q16531 whole entry partner): as the sequence (Q16531 whole entry partner) above

SMILES	Dmax (HiBiT tagged CK1α; maximum CK1α degradation)	DC50 (HiBiT tagged CK1α; HT-1080 cells)	Dmax (HiBiT tagged GSPT1; [1])	IC50 (MV4-11 cells)	HiBiT CK1α: Dmax (HiBiT tagged CK1α; HT-1080 cells, maximum CK1α degradation)	HiBiT GSPT1: Dmax (HiBiT tagged GSPT1; HT-1080 cells, 20 hours, maximum GSPT1 degradation)	GSPT1 degradation (in words) (HiBiT tagged GSPT1; HT-1080 cells)
O=C1CCC(N2Cc3cc(C(=O)N[C@H](c4ccc(F)cn4)C4CCC4)ccc3C2=O)C(=O)N1 (stereo in doubt) [Compound 78, N-((*S)-cyclobutyl(5-fluoropyridin-2-yl)methyl)-2-(2,6-dioxopiperidin-3-yl)-1-oxoisoindoline-5-carboxamide]	67.2%	198 nM	14.4%	176 nM			
O=C1CCC(N2Cc3cc(C(=O)N[C@H](c4ncc(Cl)cc4Cl)C4CCC4)ccc3C2=O)C(=O)N1 (stereo in doubt) [Compound 79, N-((*S)-cyclobutyl(3,5-dichloropyridin-2-yl)methyl)-2-(2,6-dioxopiperidin-3-yl)-1-oxoisoindoline-5-carboxamide]	65.9%	274 nM	20.4%	176 nM			
Cn1cc(-c2cccnc2[C@@H](NC(=O)c2ccc3c(c2)CN([C@H]2CCC(=O)NC2=O)C3=O)C2CCC2)cn1 (single isomer, unassigned) [Compound 84, N—((*S)-cyclobutyl(3-(1-methyl-1H-pyrazol-4-yl)pyridin-2-yl)methyl)-2-((S)-2,6-dioxopiperidin-3-yl)-1-oxoisoindoline-5-carboxamide]	72.4%	74.1 nM	15.2%	24 nM			
O=C1CC[C@H](N2Cc3cc(C(=O)N[C@H](c4ccc(F)cc4)C4CCC4)ccc3C2=O)C(=O)N1 (single isomer, unassigned) [Compound 9, N—((*S)-cyclobutyl(4-fluorophenyl)methyl)-2-((S)-2,6-dioxopiperidin-3-yl)-1-oxoisoindoline-5-carboxamide]	71.6%	116 nM	22.6%	172 nM			
Cc1ccccc1[C@@H](NC(=O)c1ccc2c(c1)CN(C1CCC(=O)NC1=O)C2=O)C1CC1 (stereo in doubt) [Compound 39, N-((*S)-cyclopropyl(o-tolyl)methyl)-2-(2,6-dioxopiperidin-3-yl)-1-oxoisoindoline-5-carboxamide]	61%	363 nM	32.5%				
O=C1CC[C@H](N2Cc3cc(C(=O)N[C@H](c4ccc(F)c(F)c4)C4CCC4)ccc3C2=O)C(=O)N1 (racemic) [Compound 46, N-((*R)-cyclobutyl(3,4-difluorophenyl)methyl)-2-((*S)-2,6-dioxopiperidin-3-yl)-1-oxoisoindoline-5-carboxamide]	54.6%	1300 nM	32.4%				
Cc1cccc([C@@H](NC(=O)c2ccc3c(c2)CN(C2CCC(=O)NC2=O)C3=O)C2CC2)c1 (stereo in doubt) [Compound 30, N-((*S)-cyclopropyl(m-tolyl)methyl)-2-(2,6-dioxopiperidin-3-yl)-1-oxoisoindoline-5-carboxamide]	47.9%		62.1%				
O=C1CC[C@@H](N2Cc3cc(C(=O)N[C@H](c4ccc(F)cc4Cl)C4CCC4)ccc3C2=O)C(=O)N1 (racemic) [Compound 50, N-((*S)-(2-chloro-4-fluorophenyl)(cyclobutyl)methyl)-2-((*R)-2,6-dioxopiperidin-3-yl)-1-oxoisoindoline-5-carboxamide]	63.1%	237 nM	42.7%				
COc1ccccc1C(NC(=O)c1ccc2c(c1)CN(C1CCC(=O)NC1=O)C2=O)C1CC1 (stereo not shown) [Compound 15, N-(cyclopropyl(2-methoxyphenyl)methyl)-2-(2,6-dioxopiperidin-3-yl)-1-oxoisoindoline-5-carboxamide]	73.2%	66.6 nM	24.5%				
O=C1CCC(N2Cc3cc(C(=O)N[C@@H](c4cccc(F)c4)C4CC4)ccc3C2=O)C(=O)N1 (stereo in doubt) [Compound 25, N-((*R)-cyclopropyl(3-fluorophenyl)methyl)-2-(2,6-dioxopiperidin-3-yl)-1-oxoisoindoline-5-carboxamide]	54.5%	1580 nM	48.4%				
O=C1CCC(N2Cc3cc(C(=O)N[C@H](c4ccc(F)cc4)C4CCOCC4)ccc3C2=O)C(=O)N1 (stereo in doubt) [Compound 38, 2-(2,6-dioxopiperidin-3-yl)-N-((*S)-(4-fluorophenyl)(tetrahydro-2H-pyran-4-yl)methyl)-1-oxoisoindoline-5-carboxamide]	64.1%	218 nM	19.9%				
Cc1ccc(NC(=O)NCc2ccc3c(c2)CN(C2CCC(=O)NC2=O)C3=O)cc1Cl (stereo not shown) [CC-885, reference compound]	53.7%	653 nM	92.5%				effectively degraded GSPT1

Other lines, results leading:

Dmax (HiBiT tagged CK1α; maximum CK1α degradation)	DC50 (HiBiT tagged CK1α; HT-1080 cells)	Dmax (HiBiT tagged GSPT1; [1])	IC50 (MV4-11 cells)	HiBiT CK1α: Dmax (HiBiT tagged CK1α; HT-1080 cells, maximum CK1α degradation)	HiBiT GSPT1: Dmax (HiBiT tagged GSPT1; HT-1080 cells, 20 hours, maximum GSPT1 degradation)	GSPT1 degradation (in words) (HiBiT tagged GSPT1; HT-1080 cells)	SMILES
65.8%	66.7 nM	24.6%	128 nM				O=C1CCC(N2Cc3cc(C(=O)N[C@H](c4ccc(Cl)cc4)C4CCC4)ccc3C2=O)C(=O)N1 (stereo in doubt) [Compound 36, N-((*S)-(4-chlorophenyl)(cyclobutyl)methyl)-2-(2,6-dioxopiperidin-3-yl)-1-oxoisoindoline-5-carboxamide]
69%	148 nM	17.3%	198 nM				O=C1CCC(N2Cc3cc(C(=O)N[C@H](c4ncc(Cl)cc4F)C4(F)CCC4)ccc3C2=O)C(=O)N1 (stereo in doubt) [Compound 89, N-((*R)-(5-chloro-3-fluoropyridin-2-yl)(1-fluorocyclobutyl)methyl)-2-(2,6-dioxopiperidin-3-yl)-1-oxoisoindoline-5-carboxamide]
66%	115 nM	14.4%	27 nM				O=C1CCC(N2Cc3cc(C(=O)N[C@H](c4ncccc4-c4ccc(F)cc4)C4CCC4)ccc3C2=O)C(=O)N1 (stereo in doubt) [Compound 83, N—((*S)-cyclobutyl(3-(4-fluorophenyl)pyridin-2-yl)methyl)-2-(2,6-dioxopiperidin-3-yl)-1-oxoisoindoline-5-carboxamide]
59.8%	279 nM	25%	133 nM				O=C1CCC(N2Cc3cc(C(=O)N[C@H](c4ncccc4Cl)C4(F)CCC4)ccc3C2=O)C(=O)N1 (stereo in doubt) [Compound 87, N-[(*R)-(3-chloro-2-pyridyl)-(1-fluorocyclobutyl)methyl]-2-(2,6-dioxo-3-piperidyl)-1-oxo-isoindoline-5-carboxamide]
69.8%	77.7 nM	27.5%					O=C1CC[C@@H](N2Cc3cc(C(=O)NC(c4ccc(F)cc4)C4CCCC4)ccc3C2=O)C(=O)N1 (single isomer, unassigned) [Compound 62, N-((*S)-cyclopentyl(4-fluorophenyl)methyl)-2-((R)-2,6-dioxopiperidin-3-yl)-1-oxoisoindoline-5-carboamide]
48.1%		60%					COc1cccc([C@H](NC(=O)c2ccc3c(c2)CN(C2CCC(=O)NC2=O)C3=O)C2CC2)c1 (stereo in doubt) [Compound 31, N-((*R)-cyclopropyl(3-methoxyphenyl)methyl)-2-(2,6-dioxopiperidin-3-yl)-1-oxoisoindoline-5-carboxamide]
	53.5 nM			72.2%	29%		O=C1CC[C@H](N2Cc3cc(C(=O)N[C@H](c4ccc(F)cc4)C4CCCC4)ccc3C2=O)C(=O)N1 (racemic) [Compound 63, N-((*S)-cyclopentyl(4-fluorophenyl)methyl)-2-((S)-2,6-dioxopiperidin-3-yl)-1-oxoisoindoline-5-carboxamide]
62.3%	142 nM	46%					O=C1CC[C@H](N2Cc3cc(C(=O)N[C@H](c4ccc(F)cc4Cl)C4CCC4)ccc3C2=O)C(=O)N1 (racemic) [Compound 51, N-((*S)-(2-chloro-4-fluorophenyl)(cyclobutyl)methyl)-2-((*S)-2,6-dioxopiperidin-3-yl)-1-oxoisoindoline-5-carboxamide]
